Results from ChEMBL document CHEMBL4831516, “Development of Membrane-Active Honokiol/Magnolol Amphiphiles as Potent Antibacterial Agents against Methicillin-Resistant Staphylococcus aureus (MRSA)” (J Med Chem, 2021).
Activity calls are given as the source filed them.

Columns and labels:
L02 [1] = experiment: Cytotoxicity against human LO2 cells assessed as cell morphology at 128 ug/ml incubated for 24 hrs by live/dead staining based fluorescence microscopy; details: l02, 24 h, dose 128 µg/ml
[2] = Toxicity in BALB/c mouse assessed as abnormalities and pathological changes in liver at 25 mg/kg, sc once a day for 3 days by H and E staining based assay; format: organism-based; details: in vivo, 72 h, time 3 day
Staphylococcus aureus [3] = experiment: Antibacterial activity against methicillin-resistant Staphylococcus aureus clinical isolate M-12 assessed as inhibition of visible growth incubated for 16 to 18 hrs by CLSI method; format: functional; details: time 16-18 hrs, read-out: MIC100
[4] = Toxicity in BALB/c mouse assessed as abnormalities and pathological changes in spleen at 25 mg/kg, sc once a day for 3 days by H and E staining based assay; format: organism-based; details: in vivo, 72 h, time 3 day
Staphylococcus aureus [5] = experiment: Antibiofilm activity against methicillin-resistant Staphylococcus aureus clinical isolate 16 assessed as decrease in viable bacteria in biofilm at 2 to 64 ug/ml incubated for 16 to 18 hrs by biofilm disruption assay; format: functional, organism-based; details: dose 2-64 µg/ml, time 16-18 hrs
Staphylococcus aureus [6] = experiment: Antibacterial activity against Staphylococcus aureus ATCC29213 assessed as inhibition of visible growth incubated for 16 to 18 hrs by CLSI method; format: functional; details: time 16-18 hrs, read-out: MIC100
Staphylococcus aureus [7] = experiment: Antibacterial activity against methicillin-resistant Staphylococcus aureus clinical isolate M-19 assessed as inhibition of visible growth incubated for 16 to 18 hrs by CLSI method; format: functional; details: time 16-18 hrs, read-out: MIC100
Staphylococcus aureus [8] = experiment: Antibacterial activity against methicillin-resistant Staphylococcus aureus clinical isolate 16 infected in BALB/c mouse assessed as reduction in inflammatory cell inflammation in spleen at 25 mg/kg, sc once a day for 3 days by H and E staining based assay; format: functional, organism-based; details: time 3.0 day
Cell membrane [9] = experiment: Induction of membrane morphological changes in methicillin-resistant Staphylococcus aureus clinical isolate 16 assessed as visible cell surface wrinkles and disruption at 10 ug/ml by scanning electron microscopy; format: subcellular; details: dose 10.0 µg/ml
Staphylococcus aureus [10] = experiment: Bactericidal activity against methicillin-resistant Staphylococcus aureus clinical isolate 16 assessed as reduction in colony formation at 1 times of MIC measured upto 8 hrs by time-kill assay; format: functional, organism-based; details: time hrs <=8
Cell membrane [11] = experiment: Induction of membrane disruption in methicillin-resistant Staphylococcus aureus clinical isolate 16 at 4 to 32 ug/ml measured for 16 mins by DiSC35 dye based fluorescence assay; format: subcellular; details: dose 4-32 µg/ml
Enterococcus faecalis = experiment: Antibacterial activity against Enterococcus faecalis ATCC29212 assessed as inhibition of visible growth incubated for 16 to 18 hrs by CLSI method; format: functional; details: time 16-18 hrs, read-out: MIC100
Staphylococcus aureus [12] = experiment: Antibiofilm activity against Staphylococcus aureus assessed as destruction of biofilm at 64 ug/ml incubated for 16 to 18 hrs by crystal violet based biofilm disruption assay relative to control; format: functional; details: dose 64 µg/ml; time 16-18 hrs
[13] = Hemolytic activity in sheep RBC assessed as hemolysis incubated for 1 hr; format: ADME, cell-based, Ovis aries, Erythrocyte; details: sheep red blood cells (erythrocytes)
[14] = test system: Stenotrophomonas maltophilia; experiment: Antibacterial activity against Stenotrophomonas maltophilia assessed as inhibition of visible growth incubated for 16 to 18 hrs by CLSI method; format: functional; details: time 16-18 hrs, read-out: MIC100
Staphylococcus aureus [15] = experiment: Antibacterial activity against methicillin-resistant Staphylococcus aureus clinical isolate 16 infected in BALB/c mouse assessed as reduction in bacterial load in spleen at 25 mg/kg, sc once a day for 3 days by H and E staining based assay; format: functional, organism-based; details: time 3.0 day
Staphylococcus aureus [16] = experiment: Antibacterial activity against […] at sublethal concentration treated over 20 serial passages by resistance development assay; format: functional, organism-based
Staphylococcus aureus [17] = experiment: Antibacterial activity against methicillin-resistant Staphylococcus aureus clinical isolate M-16 assessed as inhibition of visible growth incubated for 16 to 18 hrs by CLSI method; format: functional; details: time 16-18 hrs, read-out: MIC100
Staphylococcus aureus [18] = experiment: Bactericidal activity against methicillin-resistant Staphylococcus aureus clinical isolate 16 assessed as reduction in colony formation in late stage at 8 times of MIC measured within 2 hrs by time-kill assay; format: functional, organism-based
Cell membrane [19] = experiment: Induction of membrane morphological changes in methicillin-resistant Staphylococcus aureus clinical isolate 16 assessed as intact and smooth surface at 10 ug/ml by scanning electron microscopy; format: subcellular; details: dose 10.0 µg/ml
Staphylococcus aureus [20] = experiment: Antibacterial activity against methicillin-resistant Staphylococcus aureus clinical isolate 16 infected in BALB/c mouse assessed as reduction in bacterial load in liver at 25 mg/kg, sc once a day for 3 days by H and E staining based assay; format: functional, organism-based; details: time 3.0 day
Salmonella enterica = experiment: Antibacterial activity against Salmonella enterica 8389 assessed as inhibition of visible growth incubated for 16 to 18 hrs by CLSI method; format: functional; details: time 16-18 hrs, read-out: MIC100
Cell membrane [21] = experiment: Induction of membrane disruption in methicillin-resistant Staphylococcus aureus clinical isolate 16 assessed as increase in green fluorescence at 10 ug/ml by SYTOX green staining based confocal laser scanning microscopy; format: subcellular; details: dose 10.0 µg/ml
Staphylococcus aureus [22] = experiment: Antibacterial activity against methicillin-resistant Staphylococcus aureus clinical isolate M-11 assessed as inhibition of visible growth incubated for 16 to 18 hrs by CLSI method; format: functional; details: time 16-18 hrs, read-out: MIC100
Staphylococcus aureus [23] = experiment: Antibacterial activity against methicillin-resistant Staphylococcus aureus clinical isolate M-13 assessed as inhibition of visible growth incubated for 16 to 18 hrs by CLSI method; format: functional; details: time 16-18 hrs, read-out: MIC100
Micrococcus luteus = experiment: Antibacterial activity against Micrococcus luteus assessed as inhibition of visible growth incubated for 16 to 18 hrs by CLSI method; format: functional; details: time 16-18 hrs, read-out: MIC100
[24] = Selectivity index, HC50 for hemolytic activity in sheep RBC to MIC for antibacterial activity against Staphylococcus aureus ATCC29213; format: toxicity; details: sheep red blood cells (erythrocytes), read-out: Selectivity Index
Cell membrane [25] = experiment: Induction of membrane disruption in methicillin-resistant Staphylococcus aureus clinical isolate 16 assessed as increase in blue fluorescence at 10 ug/ml by DAPI staining based confocal laser scanning microscopy; details: dose 10.0 µg/ml
Staphylococcus aureus [26] = experiment: Antibacterial activity against methicillin-resistant Staphylococcus aureus clinical isolate M-14 assessed as inhibition of visible growth incubated for 16 to 18 hrs by CLSI method; format: functional; details: time 16-18 hrs, read-out: MIC100
Escherichia coli = experiment: Antibacterial activity against Escherichia coli ATCC25922 assessed as inhibition of visible growth incubated for 16 to 18 hrs by CLSI method; format: functional; details: time 16-18 hrs, read-out: MIC100
Staphylococcus aureus [27] = experiment: Antibacterial activity against methicillin-resistant Staphylococcus aureus clinical isolate M-17 assessed as inhibition of visible growth incubated for 16 to 18 hrs by CLSI method; format: functional; details: time 16-18 hrs, read-out: MIC100
Staphylococcus aureus [28] = experiment: Antibiofilm activity against Staphylococcus aureus assessed as reduction in colony forming unit at 64 ug/ml incubated for 16 to 18 hrs by biofilm disruption assay; format: functional; details: dose 64 µg/ml; time 16-18 hrs
Staphylococcus aureus [29] = experiment: Bactericidal activity against methicillin-resistant Staphylococcus aureus clinical isolate 16 assessed as reduction in colony formation in early stage at 8 times of MIC measured within 30 mins by time-kill assay; format: functional, organism-based
Staphylococcus aureus [30] = experiment: Antibacterial activity against methicillin-resistant Staphylococcus aureus clinical isolate 16 infected in BALB/c mouse assessed as reduction in inflammatory cell inflammation in liver at 25 mg/kg, sc once a day for 3 days by H and E staining based assay; format: functional, organism-based; details: time 3.0 day
L02 [31] = experiment: Cytotoxicity against human L02 cells assessed as cell viability at 128 ug/ml incubated for 24 hrs by CCK8 assay; format: cell-based; details: l02, 24 h, dose 128 µg/ml
Cell membrane [32] = experiment: Induction of membrane disruption in methicillin-resistant Staphylococcus aureus clinical isolate 16 assessed as increase in red fluorescence at 10 ug/ml by PI staining based confocal laser scanning microscopy; details: dose 10.0 µg/ml

C=CCc1ccc(OCCC[N+](C)(C)CC(=O)NCCCC)c(-c2ccc(OCCC[N+](C)(C)CC(=O)NCCCC)c(CC=C)c2)c1.[Br-].[Br-]
3.8 log10CFU/ml: Activity (Staphylococcus aureus [28])
2 µg/mL: MIC (Enterococcus faecalis) | MIC (Micrococcus luteus)
Non-Toxic: Activity (L02 [1]) | Activity [2] | Activity [4] | Activity (L02 [31])
1 µg/mL: MIC (Staphylococcus aureus [6]) | MIC (Staphylococcus aureus [17]) | MIC (Staphylococcus aureus [22]) | MIC (Staphylococcus aureus [23]) | MIC (Staphylococcus aureus [26])
20%: Activity (Staphylococcus aureus [12])
3 µg/mL: MIC (Staphylococcus aureus [7])
8 µg/mL: MIC [14]
789 µg/mL: HC50 at 1 h [13]
0.5 µg/mL: MIC (Staphylococcus aureus [3]) | MIC (Staphylococcus aureus [27])
4 µg/mL: MIC (Salmonella enterica) | MIC (Escherichia coli)
789: selectivity ratio [24]
active: Activity (Staphylococcus aureus [5]) | Activity (Staphylococcus aureus [8]) | Activity (Cell membrane [9]) | Activity (Staphylococcus aureus [10]) | Activity (Cell membrane [11]) | Activity (Staphylococcus aureus [15]) | Activity (Staphylococcus aureus [16]) | Activity (Staphylococcus aureus [18]) | Activity (Cell membrane [19]) | Activity (Staphylococcus aureus [20]) | Activity (Cell membrane [21]) | Activity (Cell membrane [25]) Dose-Dependent Effect | Activity (Staphylococcus aureus [29]) | Activity (Staphylococcus aureus [30]) | Activity (Cell membrane [32])
